From ChEMBL document CHEMBL6083286, “Discovery of ERD-12310A as an Exceptionally Potent and Orally Efficacious PROTAC Degrader of Estrogen Receptor α (ERα)” (J Med Chem, 2024)
Activity calls are given as the source filed them. The rule behind the calls is not given here.

What was measured:
[1] = molecular target: T1, Protein cereblon/Estrogen receptor (Homo sapiens, UniProt P03372+Q96SW2); experiment: PROTAC activity at CRBN/ERalpha in human MCF7 cells assessed as reduction in ERalpha protein level measured after 12 hrs by Western blot analysis relative to control; assay type: cell-based
[2] = Metabolic stability human liver microsome assessed as half life; assay type: ADME; settings: microsomes
[3] = molecular target: T2, Estrogen receptor (Homo sapiens, UniProt P03372); experiment: Binding affinity to human ERalpha receptor assessed as inhibition constant
T2 sequence (P03372 whole entry): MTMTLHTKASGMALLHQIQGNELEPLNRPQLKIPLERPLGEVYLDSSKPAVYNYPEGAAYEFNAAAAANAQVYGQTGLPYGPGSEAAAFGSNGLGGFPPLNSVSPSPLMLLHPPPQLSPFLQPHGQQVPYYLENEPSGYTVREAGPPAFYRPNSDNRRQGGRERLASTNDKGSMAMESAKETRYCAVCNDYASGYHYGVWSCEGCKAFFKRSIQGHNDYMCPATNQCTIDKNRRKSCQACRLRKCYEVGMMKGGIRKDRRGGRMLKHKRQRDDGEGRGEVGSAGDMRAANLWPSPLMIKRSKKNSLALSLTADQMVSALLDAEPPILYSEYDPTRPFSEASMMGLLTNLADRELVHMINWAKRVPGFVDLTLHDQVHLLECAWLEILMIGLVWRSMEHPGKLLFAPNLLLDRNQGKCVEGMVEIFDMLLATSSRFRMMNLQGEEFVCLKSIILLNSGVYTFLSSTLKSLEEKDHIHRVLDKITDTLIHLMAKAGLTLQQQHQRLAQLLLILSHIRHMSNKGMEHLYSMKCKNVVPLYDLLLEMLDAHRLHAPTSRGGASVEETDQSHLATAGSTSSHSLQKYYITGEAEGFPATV

[4] = Half life in mouse at 3 mg/kg, po or 1 mg/kg, iv measured upto 24 hrs by LC-MS/MS analysis; assay type: ADME, organism-based; settings: in vivo
[5] = Half life in rat at 3 mg/kg, po or 1 mg/kg, iv measured upto 24 hrs by LC-MS/MS analysis; assay type: ADME, organism-based; settings: in vivo
[6] = Cmax in rat at 3 mg/kg, po or 1 mg/kg, iv measured upto 24 hrs by LC-MS/MS analysis; assay type: ADME, organism-based; settings: in vivo
[7] = Cmax in dog at 3 mg/kg, po or 1 mg/kg, iv measured upto 24 hrs by LC-MS/MS analysis; assay type: ADME, organism-based, Canis lupus familiaris; settings: in vivo
[8] = AUC (0 to infinity) in rat at 3 mg/kg, po or 1 mg/kg, iv measured upto 24 hrs by LC-MS/MS analysis; assay type: ADME, organism-based; settings: in vivo
[9] = Oral bioavailability in dog at 3 mg/kg measured upto 24 hrs by LC-MS/MS analysis; assay type: ADME, organism-based, Canis lupus familiaris; settings: in vivo
[10] = molecular target: T3, Cytochrome P450 2B6 (Homo sapiens, UniProt P20813); experiment: Inhibition of CYP2B6 in human liver microsomes preincubated for 5 mins followed by NADPH addition and measured after 10 mins by LC-MS/MS analysis; assay type: ADME, Microsome
T3 sequence (P20813 whole entry): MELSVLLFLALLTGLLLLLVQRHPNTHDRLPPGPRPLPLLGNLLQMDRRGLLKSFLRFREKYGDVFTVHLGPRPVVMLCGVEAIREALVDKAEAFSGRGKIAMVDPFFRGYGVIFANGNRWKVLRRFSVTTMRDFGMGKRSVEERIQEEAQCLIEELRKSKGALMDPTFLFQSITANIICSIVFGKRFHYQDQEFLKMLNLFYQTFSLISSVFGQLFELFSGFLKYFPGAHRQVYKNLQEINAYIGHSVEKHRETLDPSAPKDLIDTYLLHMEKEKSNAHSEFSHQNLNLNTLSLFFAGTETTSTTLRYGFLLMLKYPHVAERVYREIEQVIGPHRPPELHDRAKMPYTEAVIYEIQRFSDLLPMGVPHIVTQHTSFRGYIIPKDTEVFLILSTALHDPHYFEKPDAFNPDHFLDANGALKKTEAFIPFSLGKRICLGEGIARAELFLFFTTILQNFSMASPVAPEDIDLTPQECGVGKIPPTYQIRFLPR

[11] = molecular target: Cytochrome P450 3A4 (Homo sapiens, UniProt P08684); experiment: Inhibition of CYP3A4 in human liver microsomes using testosterone as substrate preincubated for 5 mins followed by NADPH addition and measured after 10 mins by LC-MS/MS analysis; assay type: ADME, Microsome
[12] = molecular target: T1, Protein cereblon/Estrogen receptor; experiment: PROTAC activity at CRBN/ERalpha in human MCF7 cells assessed as reduction in ERalpha protein level at 0.3 nM measured at 4 hrs by Western blot analysis; assay type: cell-based
[13] = molecular target: T1, Protein cereblon/Estrogen receptor; experiment: PROTAC activity at CRBN/ERalpha in human MCF7 cells assessed as reduction in ERalpha protein level at 5 nM measured for 4 hrs by Western blot analysis; assay type: cell-based
[14] = molecular target: T1, Protein cereblon/Estrogen receptor; experiment: PROTAC activity at CRBN/ERalpha in human MCF7 cells assessed as reduction in ERalpha protein level at 5 nM measured for 4 hrs in presence of lasofoxifene by Western blot analysis; assay type: cell-based
[15] = molecular target: T1, Protein cereblon/Estrogen receptor; experiment: PROTAC activity at CRBN/ERalpha in human MCF7 cells assessed as reduction in ERalpha protein level at 5 nM measured for 4 hrs in presence of PR-171 by Western blot analysis; assay type: cell-based
[16] = molecular target: T1, Protein cereblon/Estrogen receptor; experiment: PROTAC activity at CRBN/ERalpha in human MCF7 cells assessed as effect on GSPT1 level at 0.5 to 500 nM measured for 5 hrs by Western blot analysis; assay type: cell-based; settings: dose 0.5-500 nM
[17] = Drug concentration in SCID mouse plasma at 10 mg/kg, po administered daily for 3 days and measured after 6 hrs by LC-MS/MS analysis; assay type: ADME, organism-based
[18] = Drug concentration in SCID mouse tumor at 10 mg/kg, po administered daily for 3 days and measured after 6 hrs by LC-MS/MS analysis; assay type: ADME, organism-based, Neoplasm; settings: time 3 day, read-out: Ct
[19] = Drug concentration in SCID mouse tumor at 30 mg/kg, po administered daily for 3 days and measured after 24 hrs by LC-MS/MS analysis; assay type: ADME, organism-based, Neoplasm; settings: read-out: Ct
[20] = test system: Protein cereblon/Estrogen receptor (Homo sapiens), P03372+Q96SW2 [Y537S]; experiment: In vivo PROTAC activity at CRBN/ESR1 Y537S mutant in SCID mouse xenografted with human MCF7 cells assessed as reduction in ESR1 Y537S level in tumor at 10 to 30 mg/kg, po administered once daily for 3 days measured after 24 hrs by Western blot analysis; assay type: functional, organism-based; parameters: scale not given: the % may be the effect or the level left; settings: dose 10-30 mg/kg, time […]
[21] = test system: MCF7; experiment: Antitumor activity against human MCF7 cells xenografted in SCID mouse assessed as tumor growth inhibition at 30 mg/kg, po administered for 5 weeks and measured on day 81; assay type: functional; settings: MCF7, 1944 h, time 81 day, read-out: TGI
[22] = test system: MCF7; experiment: Antitumor activity against human MCF7 cells expressing ESR1 Y537S mutant xenografted in SCID mouse assessed as tumor growth inhibition at 30 mg/kg, po administered 5 days a week for 7 weeks; assay type: functional; settings: MCF7, 1176 h, read-out: TGI
[23] = Drug concentration in SCID mouse plasma at 10 mg/kg, po administered once daily measured at 24 hrs by LC-MS/MS analysis; assay type: ADME, organism-based
[24] = Drug concentration in SCID mouse tumor at 30 mg/kg, po administered once daily for 3 days measured after 24 hrs by LC-MS/MS analysis; assay type: ADME, organism-based, Neoplasm; settings: read-out: Ct

T1 sequence (Q96SW2 whole entry, looked up, one chain of several): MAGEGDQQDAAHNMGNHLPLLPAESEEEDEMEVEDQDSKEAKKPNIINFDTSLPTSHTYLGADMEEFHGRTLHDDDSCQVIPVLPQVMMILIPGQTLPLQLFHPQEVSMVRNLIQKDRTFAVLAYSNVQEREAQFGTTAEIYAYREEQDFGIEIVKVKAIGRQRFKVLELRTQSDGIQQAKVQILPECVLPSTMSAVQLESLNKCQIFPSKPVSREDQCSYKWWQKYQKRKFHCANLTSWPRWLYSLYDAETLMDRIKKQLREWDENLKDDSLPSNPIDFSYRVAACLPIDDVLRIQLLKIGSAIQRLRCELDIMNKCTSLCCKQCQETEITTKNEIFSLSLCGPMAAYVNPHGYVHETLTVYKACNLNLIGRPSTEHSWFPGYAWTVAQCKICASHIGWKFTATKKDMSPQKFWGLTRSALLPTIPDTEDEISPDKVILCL
Chain of Cytochrome P450 3A4 (P08684 whole entry): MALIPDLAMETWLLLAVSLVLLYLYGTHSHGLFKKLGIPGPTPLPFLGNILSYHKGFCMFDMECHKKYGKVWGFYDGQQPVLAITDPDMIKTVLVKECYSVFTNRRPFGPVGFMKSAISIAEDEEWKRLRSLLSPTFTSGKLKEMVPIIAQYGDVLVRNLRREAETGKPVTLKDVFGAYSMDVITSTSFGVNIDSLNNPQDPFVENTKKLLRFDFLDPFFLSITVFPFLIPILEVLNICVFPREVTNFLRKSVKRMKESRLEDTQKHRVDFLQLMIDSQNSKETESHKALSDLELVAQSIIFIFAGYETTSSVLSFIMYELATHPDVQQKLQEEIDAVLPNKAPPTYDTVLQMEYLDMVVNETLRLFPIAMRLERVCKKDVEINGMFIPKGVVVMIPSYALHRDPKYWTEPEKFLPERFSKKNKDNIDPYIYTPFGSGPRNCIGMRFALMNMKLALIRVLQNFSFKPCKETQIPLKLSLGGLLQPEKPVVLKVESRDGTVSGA

## O=C1CC[C@H](N2Cc3c(ccc4c3OCC43CCN(C[C@@H]4CCC5(CCN(c6ccc([C@@H]7c8ccc(O)cc8CC[C@@H]7c7ccccc7)cc6)CC5)OC4)CC3)C2=O)C(=O)N1
[1]
  Emax: 103%
[2]
  t1/2: > 1 h
[3]
  Ki: 0.00095 µM
[4]
  t1/2: 13.3 h
[5]
  t1/2: 5.6 h
[6]
  Cmax: 57.7 ng/mL
[7]
  Cmax: 469.4 ng/mL
[8]
  AUC: 583 ng·h/mL
[9]
  F: 49%
[10]
  IC50: 2.5 µM
[11]
  IC50: > 10 µM
[12]
  Activity: Active
[13]
  Activity: Active
[14]
  Activity: inactive
[15]
  Activity: inactive
[16]
  Activity: Minimal_effect
[17]
  concentration at 78 h: 380 ng/mL
[18]
  concentration at 72 h: 975 ng/mL
[19]
  concentration at 96 h: 1090 ng/mL
[20]
  Activity: 74%
[21]
  inhibition in vivo at 30 mg/kg: 110%
[22]
  inhibition in vivo at 30 mg/kg: 100%
[23]
  concentration at 24 h: 7 ng/mL
[24]
  concentration at 96 h: 1030 ng/mL
